Laboratory results reported in US20240165099A1, “METHODS FOR THE TREATMENT AND PREVENTION OF DISEASES OR INFECTIONS WITH MCP-1 INVOLVEMENT BY ADMINISTRATION OF TAFENOQUINE” (60 DEGREES PHARMACEUTICALS LLC, priority 2022, published 2024).

Columns and labels:
in vitro = conditions: African green monkey, CC50, 4-day test, mock infected Vero E6 cells
Vero E6 cells = conditions: 4-day test, mock infected Vero E6 cells
Pneumocystis = conditions: mice; Bartlett et al. 1991; cited from earlier work
Babesia = conditions: mice; single doses for tafenoquine; cited from earlier work
[1] = system: Monocyte chemotactic protein 1 (MCP-1); type: in vivo, human
COVID-19 disease [2] = assay: Phase II clinical trial, time to clinical recovery in mild-moderate COVID-19; type: in vivo, human
From the text: Laboratory endpoint and patient-level individual symptom data were collected in that study, have not been reported elsewhere, and form the basis for surprising findings about the therapeutic and mechanistic effects of tafenoquine described herein.
Longitudinal aggregate symptom data for individual patients from Dow and Smith (2022) were examined to determine the number of days required before each patients reported an aggregate symptom score of 2 for four days of more for the first time. This endpoint was not included as a pre-specified analysis in the original study design, and was only recently confirmed to be an endpoint of interest to regulars in mild-moderate COVID-19 disease in standard risk patients. […] A survival curve was generated, and data were analyzed using Graphpad Prism. […] At Day 28, which was the last day of the study, the proportion of patients with persistent COVID-19 symptoms was lower in the tafenoquine arm.

[3] = system: total anti SARS-CoV-2 spike protein antibody; type: in vivo, human
SARS-CoV-2 [4] = assay: Nasopharyngeal viral load change from baseline, regression analysis; type: in vivo, human; conditions: Log10 viral copy number/ml; baseline through Day 5; P 0.8650
Method: NP swabs were collected at Baseline and Day 5 and Log10 viral copy number/ml was determined utilizing the standard commercially available assay from Eurofins. Only samples from patients where valid baseline and Day 5 results were obtained were analyzed. Samples with values below the dynamic range of the assay were assigned a value equivalent to the detection limit. Samples with […] were assigned a value equivalent to half the detection limit. Viremia change from baseline was calculated by subtracting log 10 Day 5 copy number from the log 10 baseline copy number. Log10 Baseline and change from baseline values were used in the analyses.
Multivariate regression analysis (performed utilizing the standard built-in program in Graphpad Prism 9.3.1) was used to analyze the following dependent variables: Change in NP viral load from baseline through Day 5 (Regression 1) and total anti SARS-CoV-2 antibody change from baseline through Day 14 (Regression 2). The dependent variable data were tested to ensure that they passed at least three of four tests of normality (Anderson-Darling, D'Agostino-Pearson, Shapiro-Wilk and Kolmogorov-Smirnov tests) according to the standard built-in programs in GraphPad. The same independent variables described in Example 6 were utilized. […]

[5] = in vivo; cited from earlier work
[6] = doses of up to 1200 mg over three days; Green et al 2014; cited from earlier work
SARS-CoV-2 [7] = type: cell-based; conditions: calculated relative to the CC50 for the 4-day test
[8] = system: blood stages of P. falciparum; conditions: Baird et al. 2002; McCarthy et al. 2019; cited from earlier work
COVID-19 disease [9] = conditions: mild-moderate COVID-19; exploratory analyses; P<0.02; Dow and Smith 2022; cited from earlier work
[10] = predicted Day 5 values, all group comparisons vs placebo, independent of vaccination or baseline MCP-1

Compound: CCN(CCO)CCCC(C)Nc1ccnc2cc(Cl)ccc12 (centres unmarked) [Hydroxychloroquine]
- CC50 (in vitro): ~55 µM
- CC50 (Vero E6 cells): 67 µM

Compound: COc1cc(NC(C)CCCN)c2ncccc2c1 (centres unmarked) [Primaquine]
- cure of Pneumocystis infections (Pneumocystis): must be combined with clindamycin
- dose that cleared Babesia parasitemia (Babesia): 100 mg/kg

Compound: COc1cc(C)c2c(Oc3cccc(C(F)(F)F)c3)c(OC)cc(NC(C)CCCN)c2n1 (centres unmarked) [Tafenoquine]
- Regression 1: MCP1 Day 5 CFB (Multivariate), Beta for Treatment (TQ = 1, PL = 0) ([1]; Day 5 value − Baseline value, P 0.0093): −74.4/
- Regression 2: MCP1 Day 14 CFB for high baseline MCP1, Beta for Treatment ([1]; baseline MCP-1 exceeding 350 units/ml, P 0.3304): 78.9/
- Regression 3: MCP1 Day 14 CFB for low baseline MCP1, Beta for Treatment ([1]; baseline MCP-1 less than 350 units/ml, P 0.2356): −35.0/
- Regression: MCP1 Day 14 CFB (rank-transformed), Beta for Treatment ([1]; human, in vivo): 0.584//
- reduction in Day 5 MCP-1 (absolute) [1, 10]: at least 41
- reduction in Day 5 MCP-1 (percent) [1, 10]: ≥ 10%
- Regression 1: MCP1 Day 5 (Univariate), Beta for Treatment ([1]; univariate, P 0.2548): −45.2/
- cure of Pneumocystis infections (Pneumocystis): can be administered as monotherapy to cure
- median time to clinical recovery (COVID-19 disease [2]; COVID-19 patients, 200 mg on Days 1, 2, 3 and 10, sustained recovery for four days or more, placebo 16 days): 13 days
- proportion of patients with persistent COVID-19 symptoms at Day 28 (COVID-19 disease [2]; tafenoquine arm vs placebo, Day 28): lower
- effect on total anti-SARS-CoV-2 antibody generation ([3]; P=0.546 as printed): did not affect
- Regression 2: Antibodies CFB (unvaccinated), Beta for Treatment ([3]; in vivo): −0.671/
- Regression 1: NP Viral Load CFB, Beta for Treatment (TQ = 1, PL = 0) (SARS-CoV-2 [4]): −0.0735/
- half-life [5]: 14 days
- effect on upper limit of 90% confidence interval of the QTC interval [6]: not found to increase
- selectivity index (SARS-CoV-2 [7]): 14.3
- dose that cleared Babesia parasitemia (Babesia): 20 mg/kg
- activity against the blood stages of P. falciparum [8]: quite effective
- recovery from fever, cough and shortness of breath (COVID-19 disease [9]): accelerate recovery
